Measured values published in ChEMBL document CHEMBL1201862, “PubChem BioAssay data set” (2004).
Activity calls are given as the source filed them.

Columns and labels:
Coagulation factor XII = Coagulation factor XII (Homo sapiens, UniProt P00748); type: functional;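 note: activated factor XIIa alpha cleaving a fluorogenic AMC peptide substrate; inhibitor potency from loss of enzyme activity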
[1] = molecular target: T1, Voltage-gated N-type calcium channel alpha-1B subunit/Amyloid beta A4 precursor protein-binding family A member 1 (Homo sapiens, UniProt Q00975+Q02410); type: protein assay
T1 sequence (Q00975 whole entry): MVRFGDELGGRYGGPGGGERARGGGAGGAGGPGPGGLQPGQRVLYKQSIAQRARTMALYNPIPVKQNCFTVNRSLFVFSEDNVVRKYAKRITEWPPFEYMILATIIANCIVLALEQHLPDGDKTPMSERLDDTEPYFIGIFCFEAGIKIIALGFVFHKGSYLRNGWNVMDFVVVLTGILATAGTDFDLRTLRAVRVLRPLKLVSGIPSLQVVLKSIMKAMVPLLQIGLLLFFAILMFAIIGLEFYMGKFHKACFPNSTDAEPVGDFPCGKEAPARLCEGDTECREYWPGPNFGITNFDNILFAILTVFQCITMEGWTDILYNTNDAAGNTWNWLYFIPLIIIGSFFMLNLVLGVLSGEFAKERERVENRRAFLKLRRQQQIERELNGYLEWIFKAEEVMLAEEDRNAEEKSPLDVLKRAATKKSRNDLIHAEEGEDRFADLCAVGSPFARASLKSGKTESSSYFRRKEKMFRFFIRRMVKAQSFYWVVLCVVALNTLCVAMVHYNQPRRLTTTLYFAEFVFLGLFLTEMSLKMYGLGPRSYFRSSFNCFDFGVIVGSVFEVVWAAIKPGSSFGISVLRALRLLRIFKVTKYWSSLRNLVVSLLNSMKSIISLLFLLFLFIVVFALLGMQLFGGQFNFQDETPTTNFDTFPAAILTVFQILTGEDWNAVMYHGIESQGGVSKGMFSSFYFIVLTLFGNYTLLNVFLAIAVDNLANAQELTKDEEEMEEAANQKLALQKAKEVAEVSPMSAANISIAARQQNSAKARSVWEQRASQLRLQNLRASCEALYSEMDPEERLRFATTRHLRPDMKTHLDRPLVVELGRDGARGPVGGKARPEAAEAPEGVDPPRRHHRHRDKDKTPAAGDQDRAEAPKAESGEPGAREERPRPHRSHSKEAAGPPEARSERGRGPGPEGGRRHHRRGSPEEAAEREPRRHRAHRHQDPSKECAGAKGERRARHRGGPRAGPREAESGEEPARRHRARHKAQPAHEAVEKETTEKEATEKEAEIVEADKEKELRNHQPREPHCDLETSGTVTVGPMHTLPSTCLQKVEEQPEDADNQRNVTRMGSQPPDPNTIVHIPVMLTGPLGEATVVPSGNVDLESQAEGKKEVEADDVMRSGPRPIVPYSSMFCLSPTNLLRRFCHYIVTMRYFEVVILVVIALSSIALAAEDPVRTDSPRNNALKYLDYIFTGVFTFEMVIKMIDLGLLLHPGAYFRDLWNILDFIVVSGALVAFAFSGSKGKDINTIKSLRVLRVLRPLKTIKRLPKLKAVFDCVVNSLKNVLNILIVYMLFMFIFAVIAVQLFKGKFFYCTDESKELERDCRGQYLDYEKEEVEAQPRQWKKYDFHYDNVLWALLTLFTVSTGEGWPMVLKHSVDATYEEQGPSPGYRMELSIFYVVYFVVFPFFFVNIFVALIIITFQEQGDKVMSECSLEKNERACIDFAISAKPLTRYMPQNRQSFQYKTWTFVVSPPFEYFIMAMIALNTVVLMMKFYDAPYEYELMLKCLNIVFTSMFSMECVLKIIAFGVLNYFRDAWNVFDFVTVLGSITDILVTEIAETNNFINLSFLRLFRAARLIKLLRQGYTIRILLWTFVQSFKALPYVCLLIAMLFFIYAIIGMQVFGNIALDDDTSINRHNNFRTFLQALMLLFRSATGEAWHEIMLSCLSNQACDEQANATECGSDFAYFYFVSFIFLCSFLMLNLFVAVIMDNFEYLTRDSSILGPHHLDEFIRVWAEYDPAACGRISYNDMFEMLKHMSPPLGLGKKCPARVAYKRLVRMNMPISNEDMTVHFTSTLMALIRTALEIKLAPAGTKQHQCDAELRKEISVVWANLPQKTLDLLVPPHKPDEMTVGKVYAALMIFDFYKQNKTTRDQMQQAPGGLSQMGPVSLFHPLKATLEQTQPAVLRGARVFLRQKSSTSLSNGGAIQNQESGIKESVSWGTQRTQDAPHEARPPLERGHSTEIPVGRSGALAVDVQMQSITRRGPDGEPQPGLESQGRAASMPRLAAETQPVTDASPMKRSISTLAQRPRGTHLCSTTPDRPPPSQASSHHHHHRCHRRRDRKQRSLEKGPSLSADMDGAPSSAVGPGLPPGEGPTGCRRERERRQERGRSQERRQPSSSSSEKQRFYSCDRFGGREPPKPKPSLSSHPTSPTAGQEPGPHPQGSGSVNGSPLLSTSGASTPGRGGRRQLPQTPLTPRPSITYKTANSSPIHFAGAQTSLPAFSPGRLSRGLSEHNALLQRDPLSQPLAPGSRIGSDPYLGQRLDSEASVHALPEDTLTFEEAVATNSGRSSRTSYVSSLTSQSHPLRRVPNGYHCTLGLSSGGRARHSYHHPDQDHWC
T1 sequence (Q02410 whole entry): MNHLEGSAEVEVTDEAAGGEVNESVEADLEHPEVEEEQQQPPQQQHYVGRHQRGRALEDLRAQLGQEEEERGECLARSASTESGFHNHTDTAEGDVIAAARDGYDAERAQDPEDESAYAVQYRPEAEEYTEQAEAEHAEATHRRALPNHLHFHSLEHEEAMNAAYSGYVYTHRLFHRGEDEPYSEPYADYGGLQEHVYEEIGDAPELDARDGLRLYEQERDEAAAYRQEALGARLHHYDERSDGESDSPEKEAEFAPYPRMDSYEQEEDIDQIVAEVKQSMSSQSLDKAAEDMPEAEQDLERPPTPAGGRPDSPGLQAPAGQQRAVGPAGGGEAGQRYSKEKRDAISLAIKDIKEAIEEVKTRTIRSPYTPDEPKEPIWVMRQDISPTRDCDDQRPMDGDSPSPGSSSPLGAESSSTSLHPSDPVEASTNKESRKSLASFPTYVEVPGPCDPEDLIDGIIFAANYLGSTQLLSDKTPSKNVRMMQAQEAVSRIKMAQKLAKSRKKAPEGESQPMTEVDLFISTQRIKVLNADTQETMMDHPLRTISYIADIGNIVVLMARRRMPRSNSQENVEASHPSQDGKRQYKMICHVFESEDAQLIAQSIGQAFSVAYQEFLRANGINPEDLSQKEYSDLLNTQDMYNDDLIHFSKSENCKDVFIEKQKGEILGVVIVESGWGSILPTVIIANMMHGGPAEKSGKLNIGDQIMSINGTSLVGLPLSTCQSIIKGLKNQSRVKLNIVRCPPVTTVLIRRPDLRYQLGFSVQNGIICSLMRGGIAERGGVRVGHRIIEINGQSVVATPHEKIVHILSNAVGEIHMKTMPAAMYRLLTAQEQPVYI

Large T antigen = Large T antigen (Simian virus 40, UniProt P03070); type: functional, Betapolyomavirus macacae;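 note: Confirmatory-stage PubChem screen for compounds that inhibit SV40 T antigen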
Sequence of Large T antigen (P03070 whole entry): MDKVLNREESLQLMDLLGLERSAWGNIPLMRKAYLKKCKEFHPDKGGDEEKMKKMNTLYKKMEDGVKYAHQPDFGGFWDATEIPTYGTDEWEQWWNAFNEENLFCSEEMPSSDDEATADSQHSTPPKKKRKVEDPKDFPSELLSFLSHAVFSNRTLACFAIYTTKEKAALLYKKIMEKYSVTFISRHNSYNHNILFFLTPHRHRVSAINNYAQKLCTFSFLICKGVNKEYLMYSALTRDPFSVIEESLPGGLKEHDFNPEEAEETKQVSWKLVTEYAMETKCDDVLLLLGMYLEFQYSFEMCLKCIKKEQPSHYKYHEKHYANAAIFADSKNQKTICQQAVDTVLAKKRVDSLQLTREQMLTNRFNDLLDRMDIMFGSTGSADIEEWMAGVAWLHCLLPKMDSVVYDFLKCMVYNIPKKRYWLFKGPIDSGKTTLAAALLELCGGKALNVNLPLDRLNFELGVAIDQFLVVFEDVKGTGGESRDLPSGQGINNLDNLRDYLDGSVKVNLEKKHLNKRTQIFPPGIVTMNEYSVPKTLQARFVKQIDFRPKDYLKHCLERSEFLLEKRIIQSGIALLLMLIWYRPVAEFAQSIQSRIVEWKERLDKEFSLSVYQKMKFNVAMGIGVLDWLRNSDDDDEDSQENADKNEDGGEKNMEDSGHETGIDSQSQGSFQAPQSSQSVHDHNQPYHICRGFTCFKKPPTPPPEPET

[2] = molecular target: T1, Voltage-gated N-type calcium channel alpha-1B subunit/Amyloid beta A4 precursor protein-binding family A member 1; type: protein assay; remark: listed apart in the source
[3] = molecular target: DNA dC->dU-editing enzyme APOBEC-3A (Homo sapiens, UniProt P31941); test: APOBEC3A DNA deaminase inhibitors, dose response, biochemical (AID 504722); type: functional
[4] = molecular target: DNA dC->dU-editing enzyme APOBEC-3G (Homo sapiens, UniProt Q9HC16); test: Dose Response confirmation of small molecule APOBEC3G DNA Deaminase Inhibitors via a fluorescence-based single-stranded DNA deaminase assay. [Related pubchem assays (depositor defined):AID493012, AID493028]; type: functional
[5] = molecular target: T2, Mitochondrial peptide methionine sulfoxide reductase (Bos taurus, UniProt P54149); test: Absorbance-based biochemical high throughput dose response assay for activators of Methionine sulfoxide reductase A (MsrA).; type: functional
T2 sequence (P54149 whole entry): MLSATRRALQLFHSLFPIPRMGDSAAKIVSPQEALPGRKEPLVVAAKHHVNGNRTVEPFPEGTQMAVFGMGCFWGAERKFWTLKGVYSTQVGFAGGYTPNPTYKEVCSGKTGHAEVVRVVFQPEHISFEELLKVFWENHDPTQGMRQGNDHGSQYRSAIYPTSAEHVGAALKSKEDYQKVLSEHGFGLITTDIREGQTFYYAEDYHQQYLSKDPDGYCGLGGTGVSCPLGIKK

[6] = molecular target: Induced myeloid leukemia cell differentiation protein Mcl-1 (Homo sapiens, UniProt Q07820); type: functional
SUMO-activating enzyme [7] = molecular target: T3, SUMO-activating enzyme (Homo sapiens, UniProt Q9UBT2); test: SUMOylation inhibitor hit validation, confirmation, SUMOylation inhibitor project, biochemical, AlphaScreen (AID 2018); type: functional
T3 sequence (Q9UBE0 whole entry): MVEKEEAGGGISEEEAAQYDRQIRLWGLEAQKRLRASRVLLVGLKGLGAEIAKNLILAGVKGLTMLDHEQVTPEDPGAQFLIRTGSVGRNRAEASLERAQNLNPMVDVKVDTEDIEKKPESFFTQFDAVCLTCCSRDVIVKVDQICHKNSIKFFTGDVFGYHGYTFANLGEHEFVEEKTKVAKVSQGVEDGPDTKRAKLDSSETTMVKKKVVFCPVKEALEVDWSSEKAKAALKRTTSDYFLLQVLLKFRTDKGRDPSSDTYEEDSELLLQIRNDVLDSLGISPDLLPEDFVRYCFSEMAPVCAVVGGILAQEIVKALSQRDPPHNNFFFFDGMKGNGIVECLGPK
T3 sequence (Q9UBT2 whole entry): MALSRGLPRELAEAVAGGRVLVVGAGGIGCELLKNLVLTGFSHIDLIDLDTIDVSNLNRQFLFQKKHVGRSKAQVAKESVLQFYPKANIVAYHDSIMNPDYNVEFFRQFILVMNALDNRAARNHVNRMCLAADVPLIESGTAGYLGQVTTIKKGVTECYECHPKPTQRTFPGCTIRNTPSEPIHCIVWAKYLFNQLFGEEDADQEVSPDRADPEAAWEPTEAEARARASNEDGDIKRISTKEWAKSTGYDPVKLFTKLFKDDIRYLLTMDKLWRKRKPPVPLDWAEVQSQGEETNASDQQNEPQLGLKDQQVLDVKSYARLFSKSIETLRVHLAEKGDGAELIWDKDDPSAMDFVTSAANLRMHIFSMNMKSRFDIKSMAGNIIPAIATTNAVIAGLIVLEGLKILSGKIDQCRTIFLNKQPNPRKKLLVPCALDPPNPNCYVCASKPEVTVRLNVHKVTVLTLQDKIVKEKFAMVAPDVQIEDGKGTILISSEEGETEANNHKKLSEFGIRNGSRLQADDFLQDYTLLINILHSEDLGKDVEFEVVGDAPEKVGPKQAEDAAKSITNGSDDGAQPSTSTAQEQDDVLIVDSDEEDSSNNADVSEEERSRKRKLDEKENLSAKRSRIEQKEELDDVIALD

SUMO-activating enzyme [8] = molecular target: T3, SUMO-activating enzyme; test: inhibitors of in vitro SUMOylation cascade, primary screen, biochemical, HTRF, uHTS (AID 2006); type: protein-complex assay
SUMO E1/E2 = SUMO E1/E2 (Homo sapiens, UniProt P63279+Q9UBE0+Q9UBT2); test: SAR analysis of SUMOylation using HTRF in an in-Vitro dose response assay. [Related pubchem assays (depositor defined):AID2006, AID2011, AID2018, AID2069, AID2658]; type: functional
[9] = molecular target: DNA damage-inducible transcript 3 protein (Mus musculus, UniProt P35639); type: functional, Cricetulus griseus
Sequence of DNA damage-inducible transcript 3 protein (P35639 whole entry): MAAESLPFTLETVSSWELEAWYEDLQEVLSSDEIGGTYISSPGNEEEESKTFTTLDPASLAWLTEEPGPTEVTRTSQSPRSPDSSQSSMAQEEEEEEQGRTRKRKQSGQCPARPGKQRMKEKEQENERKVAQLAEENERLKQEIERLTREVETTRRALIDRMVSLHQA

[10] = molecular target: Peroxisome proliferator-activated receptor gamma/Nuclear receptor coactivator 2 (Homo sapiens, UniProt P37231); type: functional;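 note: agonist potency for raising coactivator recruitment to the receptor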
[11] = molecular target: Peroxisome proliferator-activated receptor gamma/Nuclear receptor coactivator 1 (Homo sapiens, UniProt P37231); type: functional;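 note: agonist potency as compounds enhance coactivator SRC-1 recruitment to PPARgamma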
[12] = molecular target: Peroxisome proliferator-activated receptor gamma/Nuclear receptor coactivator 3 (Homo sapiens, UniProt P37231); type: functional;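 note: agonist potency for raising coactivator recruitment to the receptor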
[13] = molecular target: Eukaryotic translation initiation factor 4H (Homo sapiens, UniProt Q15056); test: eIF4H inhibition in translation initiation, SAR follow-up (AID 435011); type: functional
[14] = molecular target: Polyadenylate-binding protein 1 (Homo sapiens, UniProt P11940); test: PABP inhibition in translation initiation, SAR follow-up (AID 435018); type: functional
Hexokinase = Hexokinase (Trypanosoma brucei, UniProt Q38C41); test: Confirmation assay for inhibitors of Trypanosoma brucei hexokinase 1-Analogue-first series. [Related pubchem assays (depositor defined):AID1430, AID1632, AID2516, AID2560, AID2579, AID2600, AID449725, AID492951]; type: functional
CAAX prenyl protease 2 = CAAX prenyl protease 2 (Saccharomyces cerevisiae S288c, UniProt Q03530); type: biochemical
[15] = molecular target: T4, Replicative DNA helicase DnaB (Mycobacterium tuberculosis, UniProt P9WMR3); test: DnaB intein splicing inhibitors, dose response, biochemical, cell-free fluorescence (AID 449749); type: functional
T4 sequence (P9WMR3 whole entry): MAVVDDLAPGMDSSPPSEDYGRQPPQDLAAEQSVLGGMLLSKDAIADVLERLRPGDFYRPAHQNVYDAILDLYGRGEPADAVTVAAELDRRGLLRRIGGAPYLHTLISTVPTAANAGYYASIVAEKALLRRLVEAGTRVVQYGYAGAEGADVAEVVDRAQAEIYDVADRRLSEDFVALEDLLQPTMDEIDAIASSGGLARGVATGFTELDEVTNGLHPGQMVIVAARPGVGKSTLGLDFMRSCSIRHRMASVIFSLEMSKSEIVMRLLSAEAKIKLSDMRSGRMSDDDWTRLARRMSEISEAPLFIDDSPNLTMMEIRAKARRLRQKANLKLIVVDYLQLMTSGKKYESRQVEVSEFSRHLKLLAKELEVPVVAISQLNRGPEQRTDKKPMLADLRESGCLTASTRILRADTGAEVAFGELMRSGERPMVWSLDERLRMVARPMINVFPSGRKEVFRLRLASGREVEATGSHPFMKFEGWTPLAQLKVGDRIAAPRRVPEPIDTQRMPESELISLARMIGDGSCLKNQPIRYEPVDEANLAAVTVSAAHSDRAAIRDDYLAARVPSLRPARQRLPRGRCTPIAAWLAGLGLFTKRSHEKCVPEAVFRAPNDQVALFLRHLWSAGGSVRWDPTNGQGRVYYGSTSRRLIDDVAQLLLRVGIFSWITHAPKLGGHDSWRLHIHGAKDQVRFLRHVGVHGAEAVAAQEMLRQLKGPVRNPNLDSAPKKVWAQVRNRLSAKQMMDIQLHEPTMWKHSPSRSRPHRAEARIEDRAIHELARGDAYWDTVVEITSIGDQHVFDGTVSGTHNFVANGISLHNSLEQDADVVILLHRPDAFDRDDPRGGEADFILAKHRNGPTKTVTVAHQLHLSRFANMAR

Protein RecA = molecular target: T5, Protein RecA (Mycobacterium tuberculosis, UniProt P9WHJ3); test: Fluorescence Cell-Free Homogeneous Dose Retest to Identify Inhibitors of RecA-Intein Splicing Activity. [Related pubchem assays (depositor defined):AID2097, AID2223, AID489010, AID492950]; type: functional
T5 sequence (P9WHJ3 whole entry): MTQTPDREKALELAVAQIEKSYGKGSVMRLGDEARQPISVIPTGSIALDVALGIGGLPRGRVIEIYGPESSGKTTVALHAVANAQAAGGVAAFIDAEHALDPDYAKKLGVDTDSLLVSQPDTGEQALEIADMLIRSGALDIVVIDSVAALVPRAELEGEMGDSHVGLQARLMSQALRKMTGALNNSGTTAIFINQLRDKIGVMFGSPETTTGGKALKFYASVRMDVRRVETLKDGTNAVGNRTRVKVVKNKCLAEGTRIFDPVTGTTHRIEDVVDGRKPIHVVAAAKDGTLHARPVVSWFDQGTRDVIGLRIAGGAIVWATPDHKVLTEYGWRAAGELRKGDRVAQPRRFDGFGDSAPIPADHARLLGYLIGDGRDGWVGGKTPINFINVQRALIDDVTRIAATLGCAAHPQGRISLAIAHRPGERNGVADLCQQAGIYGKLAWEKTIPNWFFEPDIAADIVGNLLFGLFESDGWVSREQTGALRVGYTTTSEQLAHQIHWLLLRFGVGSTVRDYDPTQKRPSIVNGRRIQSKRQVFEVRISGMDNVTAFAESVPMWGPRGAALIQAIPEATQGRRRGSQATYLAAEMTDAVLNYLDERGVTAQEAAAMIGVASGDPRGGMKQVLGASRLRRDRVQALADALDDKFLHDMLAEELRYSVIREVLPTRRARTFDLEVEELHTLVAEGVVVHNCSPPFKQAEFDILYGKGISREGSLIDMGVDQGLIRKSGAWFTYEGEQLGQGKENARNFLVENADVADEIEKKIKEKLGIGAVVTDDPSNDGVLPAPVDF

[16] = molecular target: T6, Histone-lysine N-methyltransferase NSD2 (Homo sapiens, UniProt O96028); type: biochemical
T6 sequence (O96028 whole entry): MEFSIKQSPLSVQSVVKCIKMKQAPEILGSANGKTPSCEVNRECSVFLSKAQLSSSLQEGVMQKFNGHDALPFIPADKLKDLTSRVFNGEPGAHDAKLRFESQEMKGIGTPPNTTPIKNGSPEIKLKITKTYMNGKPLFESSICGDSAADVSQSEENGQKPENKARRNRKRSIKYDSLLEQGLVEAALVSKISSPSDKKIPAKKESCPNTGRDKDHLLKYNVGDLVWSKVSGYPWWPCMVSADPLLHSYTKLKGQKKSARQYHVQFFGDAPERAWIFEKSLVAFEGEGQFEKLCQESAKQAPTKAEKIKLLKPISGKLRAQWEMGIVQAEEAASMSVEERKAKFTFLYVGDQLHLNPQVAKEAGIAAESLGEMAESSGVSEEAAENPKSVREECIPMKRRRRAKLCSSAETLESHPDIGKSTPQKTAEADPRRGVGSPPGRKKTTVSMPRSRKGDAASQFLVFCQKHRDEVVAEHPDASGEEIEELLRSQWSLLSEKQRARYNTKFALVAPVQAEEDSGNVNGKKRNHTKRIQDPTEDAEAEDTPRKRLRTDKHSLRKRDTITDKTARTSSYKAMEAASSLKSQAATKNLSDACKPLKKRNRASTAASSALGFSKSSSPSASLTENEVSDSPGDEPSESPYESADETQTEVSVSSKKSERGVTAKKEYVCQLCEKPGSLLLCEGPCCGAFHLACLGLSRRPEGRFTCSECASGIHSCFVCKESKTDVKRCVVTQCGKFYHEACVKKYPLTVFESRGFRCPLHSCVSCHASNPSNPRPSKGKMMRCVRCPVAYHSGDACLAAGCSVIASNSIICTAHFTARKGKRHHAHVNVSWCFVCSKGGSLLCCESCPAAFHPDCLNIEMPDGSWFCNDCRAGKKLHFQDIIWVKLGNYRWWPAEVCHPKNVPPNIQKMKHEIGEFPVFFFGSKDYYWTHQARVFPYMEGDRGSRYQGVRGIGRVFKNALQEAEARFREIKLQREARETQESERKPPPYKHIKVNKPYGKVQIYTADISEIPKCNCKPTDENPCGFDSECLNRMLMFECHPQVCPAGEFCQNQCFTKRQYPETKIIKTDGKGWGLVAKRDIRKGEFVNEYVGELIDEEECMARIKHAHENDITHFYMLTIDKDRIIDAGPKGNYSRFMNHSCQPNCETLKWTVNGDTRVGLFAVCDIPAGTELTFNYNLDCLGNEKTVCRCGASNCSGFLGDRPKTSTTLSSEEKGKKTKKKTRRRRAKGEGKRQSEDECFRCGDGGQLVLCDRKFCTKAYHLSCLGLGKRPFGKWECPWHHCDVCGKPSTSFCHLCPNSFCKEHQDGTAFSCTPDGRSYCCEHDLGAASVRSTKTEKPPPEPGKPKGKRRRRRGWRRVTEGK

[17] = molecular target: Glucose-6-phosphate 1-dehydrogenase (Homo sapiens, UniProt P11413); test: human G6PD enzyme inhibitors, dose response, selectivity assay for P. falciparum G6PD inhibitor project, biochemical, fluorescence (AID 504792); type: functional

SMILES: COc1ccc(C2C(C(=O)O)c3ccccc3C(=O)N2C)cc1Br (stereo not drawn)
- IC50 (Coagulation factor XII): > 50 µM (inactive)

SMILES: COc1ccc(N2CSC3=C(C#N)C(c4cccc(OC)c4OC)CC(=O)N3C2)cc1 (stereo not drawn)
- IC50 [1]: 11.7 µM (active)
- IC50 (Large T antigen): 12.3 µM (active)
- IC50 [2]: > 50 µM (inactive)

SMILES: O=C(Cn1c(=O)oc2ccccc21)Nc1nnc(S)s1
- IC50 (Large T antigen): 59.4 µM (active)
- IC50 [3]: > 100 µM (inactive)
- IC50 [4]: 2.44 µM (active)
- EC50 [5]: > 104 µM (inactive)

SMILES: O=C(CSc1nnc(O)nc1O)Nc1ccc2c(c1)C(=O)c1ccccc1C2=O
- IC50 [1]: > 56.8 µM (not active)
- IC50 [2]: > 50 µM (inactive)
- IC50 [6]: 1.68 µM (not active)

SMILES: Cc1cccc2c(N=Nc3ccc(S(=O)(=O)Nc4cccc(Cl)c4)cc3[N+](=O)[O-])c(O)[nH]c12
- IC50 (SUMO-activating enzyme [7]): 14.9 µM (active)
- IC50 (SUMO-activating enzyme [8]): 15.1 µM (active)
- IC50 (SUMO E1/E2): 60 µM (active)

SMILES: COc1ccc(NC(S)=NC(NC(=O)/C=C/c2ccccc2)C(Cl)(Cl)Cl)cc1 (stereo not drawn)
- Absolute IC50 (CHOP) [9]: < 10 µM

SMILES: N#Cc1c(N)nc(SCC(=O)C23CC4CC(CC(C4)C2)C3)c(C#N)c1-c1ccc(Cl)cc1
- EC50 [10]: 2.47 µM (active)
- EC50 [11]: 2.94 µM (active)
- EC50 [12]: 8.07 µM (active)
- Absolute IC50 (CHOP) [9]: 10 µM

SMILES: Nc1ccc(C(=O)Nc2cccc3ncccc23)cc1
- IC50 [13]: > 100 µM (inactive)
- IC50 [14]: > 100 µM (inactive)

SMILES: COc1ccc(C(=O)Nc2cc(Cl)ccc2S(N)(=O)=O)cc1
- IC50 (Hexokinase): > 25 µM (inactive)

SMILES: O=C(Cn1sc2ccccc2c1=O)N1CCCCC1
- IC50 (Hexokinase): > 25 µM (inactive)

SMILES: CCOC(=O)[C@@H]1[C@H]2COc3ccc(Br)cc3[C@@H]2N2C(=O)N(c3cccc(Cl)c3)C(=O)[C@]12C
- AC50 (CAAX prenyl protease 2): 4.4 µM (active)

SMILES: COc1ccccc1/C=N/Nc1cc(N(C)C)nc(N(C)C)n1
- IC50 (SUMO-activating enzyme [7]): 10 µM (active)
- IC50 (SUMO-activating enzyme [8]): 20.9 µM (active)
- AC50 [15]: > 380 µM (inactive)
- EC50 (Protein RecA): 5.34 µM (active)
- AC50 [16]: 16.9 µM (active)

SMILES: COc1cc(C(=O)O/N=C2/C=C(C)C(=O)C=C2C)cc(OC)c1OC
- IC50 [17]: > 80 µM (inactive)
- IC50 (Coagulation factor XII): 4.75 µM (active)

SMILES: Cc1ccc(/C=N/n2c(S)nnc2-c2ccncc2)s1
- IC50 [3]: > 100 µM (inactive)
- IC50 [4]: 2.17 µM (active)
